# Source: patent US7429396B2, “Antifungal composition, its fungicidal effect on pathogenic dermatophytes, and process for inhibiting growth of fungi” (Bio-Botanica, Inc., priority 2003, dated 2008)
# Several values for one entry are separate records, joined by “and”; a condition that tells them apart may be missing. Equal entries are not always repeated.
# Legend:
# K. pneumoniae ATCC 10031 = assay: Agar Dilution susceptibility method (Example 5); type: cell-based, Klebsiella pneumoniae
# Protocol: (§1) The Agar Dilution susceptibility method was used to test the effectiveness of the antimicrobial composition of Example 1. The organisms used were S. aureus ATCC 29213, E. coli ATCC 25922, S. typhimurium ATCC 14028, K. pneumoniae ATCC 10031, P. aeruginosa ATCC 27853, C. albicans ATCC 10231, and M. smegmatis ATCC 14468. The organisms were maintained on Tryptic Soy Agar (TSA) slants. For each week, the organisms were cultured in 10 ml of Tryptic Soy Broth (TSB). After incubation at 37° C. for 17 hours (48 hours for M. smegmatis), the organism suspensions were diluted with 10 ml of sterile saline as shown in Table 4. The mold Aspergillus niger was sustained on a Sabouraud Dextrose Agar slant. The sample was then cultured in 10 ml of Tryptic Soy Broth and incubated for 7 days at 22° C. The mold was then diluted in 0.1% Tween 80 in saline. The diluted bacteria and yeast organisms were then inoculated onto the prepared sample plates with a 1 μl loop. The mold Aspergillus niger was added to prepared sample tubes with a 100 μl pipette.
# (§2) Phenyloxyethanol (PE), phenylethyl alcohol (PEA) and methyl/propylparabens (MP) in a ratio of 5:4 were initially screened at their commonly recommended effective concentrations of 0.3% v/v (3 μl/ml); 1% v/v (10 μl/ml); and 0.18% w/v (1 mg methyl and 0.8 mg propylparaben/ml), respectively. The antimicrobial agent was used at an initial concentration of 0.15% v/v (1.5 μl/ml).
# (§3) The sample plates for the bacteria and yeast were prepared as follows: • Prepare 10 ml tubes of TSA and allow to cool to 50° C., • Add the calculated amount of the preservative or antimicrobial agent to 100 μl dimethylsulfoxide (DMSO) to achieve the specified concentration per ml TSA when 100 μl of the DMSO solution are added to a test tube containing 10 ml of TSA, • Vortex to homogenize the mixture in TSA, • Pour TSA and the preservative or antimicrobial agent into a properly labeled Petri dish, • Allow to cool overnight at room temperature.
# (§4) The prepared sample plates were divided into seven sections and the plates labeled according to the preservative or antimicrobial agent. Each section was labeled according to the microorganism to be applied to each section. The diluted organism suspensions were inoculated onto their appropriate section with a 1 μl loop, streaking radially from the center to the outer edge of the plate. A positive control plate was prepared without a preservative or antimicrobial agent of Example 1. The plates were then incubated at 37° C. for 48 hours, recording the results at 24 and 48 hours.
# (§5) The results for the bacteria and yeast were scored in relation to the growth present on the positive control plate. Growth (G) was noted when there was full growth visible and the organism was not affected. […]
# (§6) In this example and the tables, the amount of the antimicrobial agent is expressed in terms of the volume of antimicrobial sample. The concentration of the antimicrobial agent of 1 μl/ml corresponds to 1 mg (milligram)/ml of the antimicrobial agent. The MIC obtained was confirmed by three consecutive results. DMSO was used to solubilize the test samples and help to diffuse the lipophilic ingredients into the agar. DMSO was used at a concentration not exceeding 1%.
# C. albicans ATCC 10231 = assay: Agar Dilution susceptibility method (Example 5); type: cell-based, Candida albicans
# Protocol: as §1, §2, §3, §4, §5
# P. aeruginosa ATCC 27853 = assay: Agar Dilution susceptibility method (Example 5); type: cell-based, Pseudomonas aeruginosa
# Protocol: as §1, §2
# as §3, with “temperature. […]” for “temperature.”
# (§7) The results for the bacteria and yeast were scored in relation to the growth present on the positive control plate. […]
# M. smegmatis ATCC 14468 = assay: Agar Dilution susceptibility method (Example 5); type: cell-based, Mycobacterium smegmatis
# Protocol: as §1, §2, §3, §4, §5
# A. niger ATCC 16404 = assay: Broth tube susceptibility test of the mold (Example 5); type: cell-based, Aspergillus niger
# Protocol: as §1
# The sample for the mold Aspergillus niger was prepared as follows: • Prepare 10 ml tubes of Tryptic Soy Broth (TSB), • Add the calculated amount of the sample to 100 μl dimethylsulfoxide (DMSO) to achieve the specified concentration per ml TSB. Then 100 μl of the DMSO is added to a test tube containing 10 ml of TSB, • Vortex to homogenize the mixture in TSB, • Add 100 μl of Aspergillus niger suspension to a tube of TSB not inoculated with any sample as a positive control.
# The prepared sample tubes were inoculated with 100 μl of the mold Aspergillus niger suspension to produce a final mold spore concentration in each sample tube of 1×10^4 to 1×10^5 spores/ml. The prepared sample tubes of TSB were incubated at 37° C. for 5 days with the results being recorded at 3 and 5 days.
# The results for Aspergillus niger were scored in relation to the growth present in the positive control tube. The growth (G) was noted when there was full growth visible as determined by the tube appearing cloudy to the same extent as the positive control tube. Partial activity (P) was recorded when the sample tube of TSB was less turbid than the control tube. No growth (I) was recorded when there was total inhibition and broth in the tube appeared clear.
# as §6
# [1] = test system: S. typhimurium ATCC 14028; assay: Agar Dilution susceptibility method (Example 5); type: cell-based, Salmonella typhimurium
# Protocol: as §1, §2, §3, §4
# Growth (G) was noted when there was full growth visible and the organism was not affected. […]
# In this example and the tables, the amount of the antimicrobial agent is expressed in terms of the volume of antimicrobial sample. […]
# E. coli ATCC 25922 = assay: Agar Dilution susceptibility method (Example 5); type: cell-based, Escherichia coli
# Protocol: as §1, §2, §3, §4, §5
# S. aureus ATCC 29213 = assay: Agar Dilution susceptibility method (Example 5); type: cell-based, Staphylococcus aureus
# Protocol: as §1, §2
# as §3, with “temperature. […]” for “temperature.”
# as §7
# [2] = test system: all microorganisms tested; assay: Agar/broth dilution, inhibition of all microorganisms tested (Example 5); type: cell-based
# Protocol: as §1, with “The sample was then cultured in 10 ml of Tryptic Soy Broth and incubated for 7 days at 22° C. The mold was then diluted in 0.1% Tween 80 in saline. The diluted bacteria and yeast organisms were then inoculated onto the prepared sample plates with a 1 μl loop. The mold Aspergillus niger was added to prepared sample tubes with a 100 μl pipette.” left out
# as §3, with “temperature. […]” for “temperature.”
# as §7
compound,measurement,setting,value
OCCc1ccccc1 [Phenylethyl Alcohol],Minimum Inhibitory Concentration (MIC) (sample/ml of agar or broth),K. pneumoniae ATCC 10031,5.0 μl/ml
same,growth score,K. pneumoniae ATCC 10031; 1.5 μl/ml,I
same,growth score,K. pneumoniae ATCC 10031; 3.0 μl/ml,I
same,growth score,K. pneumoniae ATCC 10031; 5.0 μl/ml,I
same,growth score,K. pneumoniae ATCC 10031; 6.0 μl/ml,I
same,Minimum Inhibitory Concentration (MIC) (sample/ml of agar or broth),C. albicans ATCC 10231,2.5 μl/ml and 3.0 μl/ml
same,growth score,C. albicans ATCC 10231; 3.0 μl/ml,I
same,growth score,C. albicans ATCC 10231; 5.0 μl/ml,I
same,growth score,C. albicans ATCC 10231; 6.0 μl/ml,I
same,Minimum Inhibitory Concentration (MIC) (sample/ml of agar or broth),P. aeruginosa ATCC 27853,5.0 μl/ml
same,growth score,P. aeruginosa ATCC 27853; 5.0 μl/ml,I
same,growth score,P. aeruginosa ATCC 27853; 6.0 μl/ml,I
same,Minimum Inhibitory Concentration (MIC) (sample/ml of agar or broth),M. smegmatis ATCC 14468,2.5 μl/ml
same,growth score,M. smegmatis ATCC 14468; 3.0 μl/ml,I
same,growth score,M. smegmatis ATCC 14468; 5.0 μl/ml,I
same,growth score,M. smegmatis ATCC 14468; 6.0 μl/ml,I
same,Minimum Inhibitory Concentration (MIC) (sample/ml of agar or broth),A. niger ATCC 16404,2.5 μl/ml
same,growth score,A. niger ATCC 16404; 3.0 μl/ml,I
same,growth score,A. niger ATCC 16404; 5.0 μl/ml,I
same,growth score,A. niger ATCC 16404; 6.0 μl/ml,I
same,Minimum Inhibitory Concentration (MIC) (sample/ml of agar or broth),[1],5.0 μl/ml
same,growth score,[1]; 3.0 μl/ml,I
same,growth score,[1]; 5.0 μl/ml,I
same,growth score,[1]; 6.0 μl/ml,I
same,Minimum Inhibitory Concentration (MIC) (sample/ml of agar or broth),E. coli ATCC 25922,5.0 μl/ml
same,growth score,E. coli ATCC 25922; 3.0 μl/ml,I
same,growth score,E. coli ATCC 25922; 5.0 μl/ml,I
same,growth score,E. coli ATCC 25922; 6.0 μl/ml,I
same,Minimum Inhibitory Concentration (MIC) (sample/ml of agar or broth),S. aureus ATCC 29213,10.0 μl/ml
same,effect on S. aureus,S. aureus ATCC 29213; 0.3 wt %,no effect
same,growth score,S. aureus ATCC 29213; 6.0 μl/ml,I
same,MIC capable of inhibiting all the tested organisms,[2],6.0 μl/ml
